Assay results taken from US9512075B2 (OKAYAMA UNIVERSITY, priority 2012, dated 2016).
Converted amounts (≈) assume the structure as drawn. Where two headings read alike, the source gives them in different places.

Assays:
Format in all cases: cell-based
[1] = test system: Staphylococcus aureus MRSA No. 17 (methicillin-resistant Staphylococcus aureus: MRSA); assay: MIC for Staphylococcus aureus MRSA No. 17; settings: read-out: MIC Straphyrococcus aureus MRSA No. 17 (MRSA)
[2] = test system: Staphylococcus aureus Smith strain; assay: MIC for Staphylococcus aureus Smith strain; settings: read-out: MIC Straphyrococcus aureus Smith
[3] = test system: Enterococcus faecalis NCTC12201 strain (vancomycin-resistant Enterococcus: VRE); assay: MIC for Enterococcus faecalis NCTC12201 strain (VRE); settings: read-out: MIC Enterococcus faecalis NCTC 12201 (VRE)
[4] = test system: Escherichia coli BE1121 strain; assay: MIC for Escherichia coli BE1121 strain; settings: Escherichia coli, BE1121STRAIN, read-out: MIC Escherichia coli BE1121
[5] = test system: Clostridium perfringens PB6K strain; assay: microbe, parasite or virus in culture; settings: Clostridium perfringens, PB6KSTRAIN, read-out: MIC Clostridium perfringens PB6K, PB6K strain; CD medium, 37° C. overnight, 10% CO2-containing anaerobic conditions
[6] = test system: Staphylococcus aureus 209P strain; assay: MIC for Staphylococcus aureus 209P strain; settings: Staphylococcus aureus, read-out: MIC Straphyrococcus aureus 209P
[7] = test system: Escherichia coli K-12 strain; assay: MIC for Escherichia coli K-12 strain; settings: Escherichia coli, K12STRAIN, read-out: MIC Escherichia coli K12
[8] = test system: Clostridium difficile JCM1296 strain; assay: microbe, parasite or virus in culture; settings: Clostridioides difficile, JCM1296, read-out: MIC Clostridium difficile JCM1296
[9] = test system: Enterococcus faecalis 5038 strain; assay: MIC for Enterococcus faecalis 5038 strain; settings: read-out: MIC Enterococcus faecalis 5038
[10] = MRSA No. 17, regular bouillon medium, 37° C. overnight, turbidity
[11] = Smith strain, regular bouillon medium, 37° C. overnight, turbidity
[12] = NCTC12201 strain (VRE), Heart Infusion Broth medium, 37° C. overnight, turbidity
[13] = BE1121 strain, regular bouillon medium, 37° C. overnight, turbidity
[14] = 209P strain, regular bouillon medium, 37° C. overnight, turbidity
[15] = K-12 strain, regular bouillon medium, 37° C. overnight, turbidity
[16] = 5038 strain, Heart Infusion Broth medium, 37° C. overnight, turbidity

| Compound | MIC [1, 10] | MIC [2, 11] | MIC [3, 12] | MIC [4, 13] | MIC [5] | MIC [6, 14] | MIC [7, 15] | MIC [8] | MIC [9, 16] | MIC [4] | MIC ([6]; 209P) | MIC [7] | MIC ([1]; MRSA) | MIC [2] | MIC [3] | MIC ([9]; 5038STRAIN) |
| --- | --- | --- | --- | --- | --- | --- | --- | --- | --- | --- | --- | --- | --- | --- | --- | --- |
| CCCCCCCCCCOCC(=O)c1c(O)c2cc(Cl)ccc2oc1=O [B028, 3-decyloxyacetyl-6-chloro-4-hydroxycoumarin] | 256 µg/mL (≈ 648 µM) | 8 µg/mL (≈ 20.3 µM) | 256 µg/mL (≈ 648 µM) | 256 µg/mL (≈ 648 µM) | 0.25 µg/mL (≈ 0.633 µM) | 128 µg/mL (≈ 324 µM) | 256 µg/mL (≈ 648 µM) | 0.25 µg/mL (≈ 0.633 µM) | 256 µg/mL (≈ 648 µM) | – | – | – | – | – | – | – |
| CC(=O)N1C(=O)C(=C(O)CCCCCCCCCBr)c2ccccc21 [A024, N-acetyl-3-(10-bromodecanoyl)-2-oxyindole] | 16 µg/mL (≈ 39.2 µM) | 4 µg/mL (≈ 9.8 µM) | 1 µg/mL (≈ 2.45 µM) | – | 0.5 µg/mL (≈ 1.22 µM) | – | – | 0.5 µg/mL (≈ 1.22 µM) | 0.5 µg/mL (≈ 1.22 µM) | 16 µg/mL (≈ 39.2 µM) | 16 µg/mL (≈ 39.2 µM) | 128 µg/mL (≈ 313 µM) | – | – | – | – |
| CCCCCCCCNC(=O)N1C(=O)C(=C(O)c2ccccc2)c2ccccc21 [A031, N-(octylaminocarbonyl)-3-benzoyl-2-oxyindole] | – | – | – | – | 0.25 µg/mL (≈ 0.637 µM) | – | – | 0.25 µg/mL (≈ 0.637 µM) | – | 256 µg/mL (≈ 652 µM) | 0.25 µg/mL (≈ 0.637 µM) | 256 µg/mL (≈ 652 µM) | 256 µg/mL (≈ 652 µM) | 0.5 µg/mL (≈ 1.27 µM) | 0.25 µg/mL (≈ 0.637 µM) | 25 µg/mL (≈ 63.7 µM) |
| CCCCCCCCCC(=O)N1C(=O)/C(=C(\O)c2ccccc2)c2cc(F)ccc21 [A052, N-decanoyl-3-benzoyl-5-fluoro-2-oxyindole] | – | – | – | 128 µg/mL (≈ 313 µM) | 0.5 µg/mL (≈ 1.22 µM) | 64 µg/mL (≈ 156 µM) | 256 µg/mL (≈ 625 µM) | 0.5 µg/mL (≈ 1.22 µM) | – | – | – | – | 64 µg/mL (≈ 156 µM) | 0.5 µg/mL (≈ 1.22 µM) | 0.5 µg/mL (≈ 1.22 µM) | 0.25 µg/mL (≈ 0.61 µM) |
| CCCCC1CCC(C(O)=C2C(=O)N(C(=O)OC(C)(C)C)c3ccc(F)cc32)CC1 (stereo not drawn) [A027, N-Boc-3-(4-butylcyclohexylcarbonyl)-5-fluoro-2-oxyindole] | 128 µg/mL (≈ 307 µM) | 16 µg/mL (≈ 38.3 µM) | 8 µg/mL (≈ 19.2 µM) | 128 µg/mL (≈ 307 µM) | 2 µg/mL (≈ 4.79 µM) | 128 µg/mL (≈ 307 µM) | 128 µg/mL (≈ 307 µM) | 1 µg/mL (≈ 2.4 µM) | 8 µg/mL (≈ 19.2 µM) | – | – | – | – | – | – | – |
| CCCCC1CCC(C(O)=C2C(=O)N(C(=O)OC(C)(C)C)c3cc(Cl)ccc32)CC1 (stereo not drawn) [A009, N-Boc-3-(4-butylcyclohexylcarbonyl)-6-chloro-2-oxyindole] | 256 µg/mL (≈ 590 µM) | 32 µg/mL (≈ 73.7 µM) | 4 µg/mL (≈ 9.22 µM) | 128 µg/mL (≈ 295 µM) | 1 µg/mL (≈ 2.3 µM) | 128 µg/mL (≈ 295 µM) | 128 µg/mL (≈ 295 µM) | 0.5 µg/mL (≈ 1.15 µM) | 4 µg/mL (≈ 9.22 µM) | – | – | – | – | – | – | – |
| CCCCCCCCCCSCC(O)=C1C(=O)N(C(C)=O)c2ccc(Br)cc21 [A030, N-acetyl-5-bromo-3-decylthioacetyl-2-oxyindole] | 2 µg/mL (≈ 4.27 µM) | 0.25 µg/mL (≈ 0.534 µM) | 0.25 µg/mL (≈ 0.534 µM) | 8 µg/mL (≈ 17.1 µM) | < 0.125 µg/mL | 2 µg/mL (≈ 4.27 µM) | 256 µg/mL (≈ 546 µM) | < 0.125 µg/mL | 0.25 µg/mL (≈ 0.534 µM) | – | – | – | – | – | – | – |
| CCCCCCCCCC(O)=C1C(=O)N(C)c2ccccc21 [A007, N-methyl-3-decanoyl-2-oxyindole] | 128 µg/mL (≈ 425 µM) | 8 µg/mL (≈ 26.5 µM) | 15 µg/mL (≈ 49.8 µM) | – | 8 µg/mL (≈ 26.5 µM) | – | – | 2 µg/mL (≈ 6.64 µM) | 32 µg/mL (≈ 106 µM) | 256 µg/mL (≈ 849 µM) | 32 µg/mL (≈ 106 µM) | 256 µg/mL (≈ 849 µM) | – | – | – | – |
| CCCCCCCCCC(O)=C1C(=O)Nc2ccc(F)cc21 [A004, 3-decanoyl-5-fluoro-2-oxyindole] | 32 µg/mL (≈ 105 µM) | 16 µg/mL (≈ 52.4 µM) | 15 µg/mL (≈ 49.1 µM) | – | 8 µg/mL (≈ 26.2 µM) | – | – | 2 µg/mL (≈ 6.55 µM) | 16 µg/mL (≈ 52.4 µM) | 128 µg/mL (≈ 419 µM) | 16 µg/mL (≈ 52.4 µM) | 128 µg/mL (≈ 419 µM) | – | – | – | – |
| CCCCCCCCCCOCC(O)=C1C(=O)N(C(C)=O)c2cc(Cl)ccc21 [A017, N-acetyl-3-decyloxyacetyl-6-chloro-2-oxyindole] | 16 µg/mL (≈ 39.2 µM) | – | – | 128 µg/mL (≈ 314 µM) | < 0.125 µg/mL | 128 µg/mL (≈ 314 µM) | 128 µg/mL (≈ 314 µM) | < 0.125 µg/mL | – | – | – | – | – | < 0.125 µg/mL | < 0.125 µg/mL | < 0.125 µg/mL |
| CCCCCCCCCCOCC(O)=C1C(=O)N(C(=O)Nc2ccccc2)c2ccc(Br)cc21 [A035, N-(phenylaminocarbonyl)-5-bromo-3-decyloxyacetyl-2-oxyindole] | 64 µg/mL (≈ 121 µM) | 8 µg/mL (≈ 15.1 µM) | 2 µg/mL (≈ 3.78 µM) | 128 µg/mL (≈ 242 µM) | 0.25 µg/mL (≈ 0.472 µM) | 64 µg/mL (≈ 121 µM) | 128 µg/mL (≈ 242 µM) | 0.5 µg/mL (≈ 0.944 µM) | 4 µg/mL (≈ 7.55 µM) | – | – | – | – | – | – | – |
